Reference: patent US12570684B2 (UNIVERSITY OF TENNESSEE RESEARCH FOUNDATION, priority 2020, dated 2026)
Converted amounts (≈) assume the structure as drawn. Read-outs that look alike come from different tables or passages of the source.

What was measured:
AglH (M. jannaschii) = target: T1, AglH (M. jannaschii) (Methanocaldococcus jannaschii, UniProt Q58513); assay: AglH assay
T1 sequence (Q58513 1-301): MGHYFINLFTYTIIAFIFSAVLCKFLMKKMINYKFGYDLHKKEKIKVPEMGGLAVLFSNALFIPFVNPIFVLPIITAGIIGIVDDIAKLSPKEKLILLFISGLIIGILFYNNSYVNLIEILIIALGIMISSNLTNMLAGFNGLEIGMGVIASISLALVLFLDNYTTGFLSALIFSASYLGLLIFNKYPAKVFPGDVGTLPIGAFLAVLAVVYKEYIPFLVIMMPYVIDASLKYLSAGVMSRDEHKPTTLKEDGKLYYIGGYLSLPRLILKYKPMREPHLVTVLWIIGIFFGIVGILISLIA

WecA (E. coli) = WecA (E. coli) (Escherichia coli, UniProt P0AC78); assay: WecA assay
Description: Preparation of membrane fraction P-60 containing WecA. E. coli B21 wecA strain were harvested by centrifugation (4,700 rpm) at 4° C. followed by washing with 0.9% saline solution (thrice). The washed cell pellets were washed with homogenization buffer (containing 50 mM K2HPO4, 5 mM MgCl2, 5 mM 1,4-dithio-DL-threitol, and 10% glycerol, pH=7.2) (thrice), and approximately 5 g of pellet (wet weight) was collected. The washed cell pellets were suspended in homogenization buffer and disrupted by probe sonication on ice (5 s on and 2 s off for 1 min, then cool down for 1.5 min., 5 cycles, cool down for 15 min, and then, 5 s on and 2 s off for 1 min., cool down for 1.5 min, 5 cycles). The resulting suspension was centrifuged at 4,700×g for 15 min. at 4° C. to remove unbroken cells. The lysate was centrifuged at 25,000×g for 20 min. at 4° C. The supernatant was subjected to ultracentrifugation at 60,000×g for 1 h at 4° C. The supernatant was discarded, and the membrane fraction containing WecA enzyme (P-60) was suspended in the Tris-HCl buffer (pH=7.5). Total protein concentrations were approximately 8 to 10 mg/mL. Aliquots were stored in Eppendorf tubes at −80° C.

WecA = settings: background, reported; cited from earlier work
[1] = target: MraY (Hydrogenivirga sp.) (Hydrogenivirga sp. 128-5-R1-1, UniProt Z9Y2G8N0L0); assay: MraY assay; format: biochemical
Description: Expression and purification of HyMraY. The gene mraY of Hydrogenivirga spp. 128-5-R1-1 was cloned with a N-terminal His6 tag into a pET22b vector. […] The proteins were purified using a nickel, cation exchange, and size exclusion chromatography.
MraY assay. MraY assay substrates, Park's nucleotide-N^ε-C6-dansylthiourea, neryl phosphate, were chemically synthesized according to the reported procedures.^7 Park's nucleotide-N^ε-C6-dansylthiourea (2 mM stock solution, 1.88 jiL), MgCl2 (0.5 M, 5 jiL), KCl (2 M, 5 jiL), Triton X-100 (0.5%, 5.63 jiL), Tris buffer (pH 8.0, 50 mM), neryl phosphate (0.1 M, 2.25 jiL), and inhibitor molecule (0-50 .ig/mL in Tris buffer) were placed in a 1.5 mL Eppendorf tube. […] (26° C.) and quenched with CHCl3 (100 jiL). […] The aqueous phase was assayed via reverse-phase HPLC.

DPAGT1 (Human) = target: T2, DPAGT1 (Human) (Homo sapiens, UniProt Q9H3H5); assay: DPAGT1 assay; format: biochemical
T2 construct: made in house; host or cells: Expi293 cells (suspension)
T2 sequence (Q9H3H5 1-408): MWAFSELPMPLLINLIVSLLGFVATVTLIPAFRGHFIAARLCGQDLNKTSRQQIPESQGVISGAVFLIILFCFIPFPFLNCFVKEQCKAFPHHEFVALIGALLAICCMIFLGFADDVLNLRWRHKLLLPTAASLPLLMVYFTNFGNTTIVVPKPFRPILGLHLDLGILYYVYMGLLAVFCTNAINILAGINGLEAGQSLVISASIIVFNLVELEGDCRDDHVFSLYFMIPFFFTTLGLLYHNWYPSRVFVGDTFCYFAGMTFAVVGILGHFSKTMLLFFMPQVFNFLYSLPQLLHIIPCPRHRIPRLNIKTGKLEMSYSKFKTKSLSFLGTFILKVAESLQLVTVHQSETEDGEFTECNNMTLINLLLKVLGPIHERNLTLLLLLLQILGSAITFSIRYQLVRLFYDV
Description: DPAGT1 expression and purification. DPAGT1 was expressed in suspended Expi293 cells for 36 h. The cells were lysed by drawing through a 26 g needle (10 times) and membrane protein was extracted using buffer containing 1% decyl f3-D-maltopyranoside detergent. DPAGT1 was purified using HA-agarose resin and a superdex 200 size exclusion column.

PD002 [2] = assay: Scratch (wound healing) assay; format: cell-based; settings: 0.2 μM, 24 h; untreated PD002 63%
Description: Scratch Assay. A confluent monolayer was formed in 24-well plates. The monolayer was scratched by a sterile 200 μL pipette tip and washed with PBS to remove cell debris. Complete medium with CPPB (5) (0, 0.05, 0.1, 0.2 μM) were added and scratched areas were photographed with microscope. The scratched cells were incubated at 37° C., 5% CO2. After 24 h, medium was removed and cells were stained with a 1:1 mixture of crystal violet and PBS for 5 min., washed with PBS twice, and photographed with microscope. Wound areas were measured and recovered areas were calculated.

PD002 [3] = assay: Checkerboard synergy (FIC index) with paclitaxel; format: cell-based
Description: The synergistic or antagonistic activities of CPPB were assessed in vitro via checkerboard technique.

[4] = read-out: IC50 AglH (M. jannaschii)

MraY (Hydrogenivirga sp.), sequence (Z9Y2G8N0L0 7-365 limits assumed): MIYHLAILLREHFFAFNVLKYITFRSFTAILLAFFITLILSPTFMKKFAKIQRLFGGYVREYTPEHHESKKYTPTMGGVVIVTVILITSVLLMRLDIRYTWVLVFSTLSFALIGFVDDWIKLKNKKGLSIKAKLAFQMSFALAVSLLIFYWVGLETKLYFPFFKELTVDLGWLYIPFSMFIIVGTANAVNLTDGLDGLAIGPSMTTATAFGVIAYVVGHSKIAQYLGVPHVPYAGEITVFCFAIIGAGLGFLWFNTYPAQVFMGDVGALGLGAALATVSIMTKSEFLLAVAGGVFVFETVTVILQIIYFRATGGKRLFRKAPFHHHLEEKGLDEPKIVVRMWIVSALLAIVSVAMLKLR
WecA (E. coli), sequence (P0AC78 whole entry): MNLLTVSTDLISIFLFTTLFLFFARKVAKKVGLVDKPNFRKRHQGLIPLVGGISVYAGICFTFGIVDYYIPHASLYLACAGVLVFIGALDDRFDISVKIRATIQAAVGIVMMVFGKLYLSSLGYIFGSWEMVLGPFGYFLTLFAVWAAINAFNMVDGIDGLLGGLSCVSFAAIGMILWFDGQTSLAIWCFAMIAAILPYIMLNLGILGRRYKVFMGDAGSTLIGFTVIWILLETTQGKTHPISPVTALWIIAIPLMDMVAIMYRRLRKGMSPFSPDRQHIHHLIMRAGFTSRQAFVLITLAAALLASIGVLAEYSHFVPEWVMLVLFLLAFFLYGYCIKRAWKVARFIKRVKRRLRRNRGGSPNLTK

**Q.** For COC1C(O)[C@H](n2ccc(=O)[nH]c2=O)O[C@@H]1[C@@H](O[C@H]1OC(CNCc2ccc(N3CCC(c4ccc(OC(F)(F)F)cc4)CC3)cc2)=C[C@H](O)[C@@H]1O)C(N)=O (stereo partly drawn) [CPPA, (2R)-2-(((2S,3S,4S)-3,4-Dihydroxy-6-(((4-(4-(4-(trifluoromethoxy)phenyl)piperidin-1-yl)benzyl)-amino)-methyl)-3,4-dihydro-2H-pyran-2-yl)oxy)-2-((2S,5R)-5-(2,4-dioxo-3,4-dihydropyrimidin-1(2H)-yl)-4-hydroxy-3-methoxytetrahydrofuran-2-yl)acetamide], which IC50 (AglH (M. jannaschii)) is on record?
**A.** The IC50 was > 50 µM.

**Q.** What about the IC50 (WecA (E. coli)) of the same compound?
**A.** The IC50 was > 50 µM.

**Q.** Which “IC50 WecA” value (WecA) does the source give for CCCCc1ccc(NC(=O)C2=CCN(C)[C@@H]([C@H](O[C@@H]3O[C@H](CN)[C@@H](O)[C@H]3O)[C@H]3O[C@@H](n4ccc(=O)[nH]c4=O)[C@H](O)[C@@H]3O)C(=O)N2C)cc1 [CPZEN-45] here?
**A.** Its value is ~0.058 mg/L (≈ 0.0842 µM).

**Q.** Which IC50 (AglH (M. jannaschii)) does the source give for NC(=O)[C@H](O[C@H]1OC(C(=O)NCc2ccc(N3CCC(c4ccc(OC(F)(F)F)cc4)CC3)cc2)=C[C@H](O)[C@@H]1O)[C@H]1O[C@@H](n2ccc(=O)[nH]c2=O)C(O)C1O (stereo partly drawn) [DM-CPPB, (2S,3S,4S)-2-((1R)-2-Amino-1-((2S,5R)-5-(2,4-dioxo-3,4-dihydropyrimidin-1(2H)-yl)-3,4-dihydroxy-tetrahydrofuran-2-yl)-2-oxoethoxy)-3,4-dihydroxy-N-(4-(4-(4-(trifluoromethoxy)phenyl)-piperidin-1-yl)benzyl)-3,4-dihydro-2H-pyran-6-carboxamide] here?
**A.** The IC50 was > 50 µM.

**Q.** And the IC50 (WecA (E. coli))?
**A.** Its IC50 is 30 µM.

**Q.** Which IC50 (AglH (M. jannaschii)) does the source give for NC(=O)[C@H](O[C@H]1OC(C(=O)N[C@H]2CCCCNC2=O)=C[C@H](O)[C@@H]1O)[C@H]1O[C@@H](n2ccc(=O)[nH]c2=O)C(O)C1O (stereo partly drawn) [Dimethyl capuramycin, (2S,3S,4S)-2-((1R)-2-Amino-1-((2S,5R)-5-(2,4-dioxo-3,4-dihydropyrimidin-1(2H)-yl)-3,4-dihydroxy-tetrahydrofuran-2-yl)-2-oxoethoxy)-3,4-dihydroxy-N—((S)-2-oxoazepan-3-yl)-3,4-dihydro-2H-pyran-6-carboxamide] here?
**A.** Its IC50 is > 50 µM.

**Q.** What about the IC50 [1] of the same compound?
**A.** Its IC50 is > 50 µM.

**Q.** And the IC50 (DPAGT1 (Human))?
**A.** Its IC50 is > 50 µM.

**Q.** What about the IC50 (WecA (E. coli)) of the same compound?
**A.** The IC50 was 35 µM.

**Q.** With Nc1ccn([C@@H]2O[C@H](CO)[C@@H](O)C2(F)F)c(=O)n1 [Gemcitabine] as the compound, how does the wound-healing rate (PD002 [2]) read?
**A.** Its wound-healing rate is 43%.

**Q.** What does the source list for COC1C(O)[C@@H]([C@@H](O[C@H]2OC(C(=O)NCc3ccc(N4CCC(c5ccc(OC(F)(F)F)cc5)CC4)cc3)=C[C@H](O)[C@@H]2O)C(N)=O)O[C@H]1n1ccc(=O)[nH]c1=O (stereo partly shown) [I-CPPB]?
**A.** IC50 (AglH (M. jannaschii)): 15 µM; IC50 (DPAGT1 (Human)): 0.6 µM; IC50 (WecA (E. coli)): 20 µM

**Q.** With CC(=O)O[C@H]1C(=O)[C@@]2(C)[C@H]([C@H](OC(=O)c3ccccc3)[C@]3(O)C[C@H](OC(=O)[C@H](O)[C@@H](NC(=O)c4ccccc4)c4ccccc4)C(C)=C1C3(C)C)[C@]1(OC(C)=O)CO[C@@H]1C[C@@H]2O [Paclitaxel, reference compound] as the compound, how does the IC50 (PD002 [3]; PD002, alone, read-out: IC50 of the single agent against PD002) read?
**A.** The IC50 was 1.25 µM.

**Q.** What about the IC50 (PD002 [3]; PD002, read-out: IC50 CB (paclitaxel in combination), entry 1, with CPPB 0.10 μM) of the same compound?
**A.** Its IC50 is 0.63 µM.

**Q.** And the IC50 (PD002 [3]; PD002, read-out: IC50 CB (paclitaxel in combination), entry 2, with CPPB 0.10 μM)?
**A.** Its IC50 is 0.16 µM.

**Q.** What about the IC50 (PD002 [3]; PD002, read-out: IC50 CB (paclitaxel in combination), entry 3, with CPPB 0.20 μM) of the same compound?
**A.** The IC50 was 0.0049 µM.

**Q.** And the IC50 (PD002 [3]; PD002, read-out: IC50 CB (paclitaxel in combination), entry 4, with CPPB 0.20 μM)?
**A.** Its IC50 is 0.02 µM.

**Q.** What about the IC50 (PD002 [3]; PD002, read-out: IC50 CB (paclitaxel in combination), entry 5, with CPPB 0.20 μM) of the same compound?
**A.** Its IC50 is 0.031 µM.

**Q.** And the IC50 (PD002 [3]; PD002, read-out: IC50 CB (paclitaxel in combination), entry 6, with CPPB 2.0 μM)?
**A.** The IC50 was 0.02 µM.

**Q.** What about the IC50 (PD002 [3]; PD002, read-out: IC50 CB (paclitaxel in combination), entry 7, with CPPB 2.0 μM) of the same compound?
**A.** The IC50 was 0.039 µM.

**Q.** And the IC50 (PD002 [3]; PD002, read-out: IC50 CB (paclitaxel in combination), entry 8, with CPPB 2.0 μM)?
**A.** Its IC50 is 0.31 µM.

**Q.** And the IC50 (PD002 [3]; PD002, read-out: IC50 of paclitaxel against PD002 in combination with CPPB, with CPPB (0.1-2.0 μM))?
**A.** The IC50 was 0.024 to 0.61 µM.

**Q.** What about the “improvement of cytostatic activity of paclitaxel” value (PD002 [3]; in combination with CPPB (0.2-2.0 μM)) of the same compound?
**A.** The value was “over 250 times”.

**Q.** Which IC50 (AglH (M. jannaschii)) does the source give for COC1C(O)C(C(OC2OC(C(=O)NC3CCCCNC3=O)=CC(O)C2O)C(N)=O)OC1n1ccc(=O)[nH]c1=O [iso-Capuramycin, (2S,3S,4S)-2-((1R)-2-Amino-1-(2S,5R)-5-(2,4-dioxo-3,4-dihydropyrimidin-1(2H)-yl)-3-hydroxy-4-methoxytetrahydrofuran-2-yl)-2-oxoethoxy)-3,4-dihydroxy-N—((S)-2-oxoazepan-3-yl)-3,4-dihydro-2H-pyran-6-carboxamide] here?
**A.** Its IC50 is 20 µM.

**Q.** What about the IC50 (DPAGT1 (Human)) of the same compound?
**A.** The IC50 was 11.5 µM.

**Q.** And the IC50 (WecA (E. coli))?
**A.** The IC50 was 30 µM.

**Q.** Which results are given for “(2R)-2-(((2S,3S,4S)-3,4-dihydroxy-6-(((4-(4-(4-(trifluoromethoxy)phenyl)pipendin-1-yl)-benzyl)amino)methyl)-3,4-dihydro-2H-pyran-2-yl)oxy)-2-((2S,5R)-5-(2,4-dioxo-3,4-dihydro-pyrimidin-1(2H)-yl)-3-hydroxy-4-methoxytetrahydrofuran-2-yl)acetamide [I-CPPA]”?
**A.** AglH inhibition at 50 μM (AglH (M. jannaschii); 50 μM concentration): did not inhibit; IC50 (AglH (M. jannaschii); [4]): > 50 µM; IC50 [1]: > 50 µM; MraY inhibition at 50 μM ([1]; 50 μM concentration): did not inhibit; IC50 (DPAGT1 (Human)): > 50 µM; DPAGT1 inhibition at 50 μM (DPAGT1 (Human); 50 μM concentration): did not inhibit; WecA inhibition at 50 μM (WecA (E. coli); 50 μM concentration): did not inhibit; IC50 (WecA (E. coli); read-out: IC50 WecA (E. coli)): > 50 µM

**Q.** For “(2S,3S,4S)-2-((1R)-2-Amino-1-(2S,5R)-5-(2,4-dioxo-3,4-dihydropyrimidin-1(2H)-yl)-3,4-dimethoxy-tetrahydrofuran-2-yl)-2-oxoethoxy)-3,4-dihydroxy-N-(4-(4-(4-(trifluoromethoxy)-phenyl)piperidin-1-yl)benzyl)-3,4-dihydro-2H-pyran-6-carboxamide [OM-CPPB]”, which IC50 (AglH (M. jannaschii); [4]) is on record?
**A.** The IC50 was 30 µM.

**Q.** What about the IC50 [1] of the same compound?
**A.** The IC50 was 5 µM.

**Q.** And the “DPAGT1 inhibitory activity (in words)” value (DPAGT1 (Human))?
**A.** Its value is “very low- or no-DPAGT1 inhibitor”.

**Q.** What about the IC50 (DPAGT1 (Human)) of the same compound?
**A.** Its IC50 is 20 µM.

**Q.** What about the IC50 (WecA (E. coli); read-out: IC50 WecA (E. coli)) of the same compound?
**A.** The IC50 was 10 µM.
